Patent US5736523A, “Antineoplastic heteronapthoquinones” (Biochem Pharma Inc., priority 1995, dated 1998)
Where a name gives a salt, the structure may show the parent alone.

Each compound was assayed on SKVLB (Ovarian; multidrug resistant) (assay: In vitro cytotoxicity, microculture tetrazolium (MTT) assay, SKVLB). Conditions: Homo sapiens.
Assay type: cell-based, human
Experimental: In Vitro Cytotoxicity--Microculture Tetrazolium Assay
The microculture tetrazolium assay was used to test in vitro cytotoxicity. This assay is described in Plumb, J. A. et al., 1989 Cancer Research 49, 4435-4440, which is herein incorporated by reference. The cytotoxicity of compounds towards tumor cells is measured in vitro using the assay. This assay method is based upon the ability of live, but not dead cells to reduce the yellow water soluble dye 3-(4;5-dimethylthiazol-2-yl)-2,5-diphenyltetrazolium bromide (MTT) to its water insoluble purple formazan product.
Human Tumor Cell lines, used were:
SKVLB (Ovarian; multidrug resistant)--Dr. V. Ling, Ontario
The cells were maintained in exponential growth in culture in minimal essential media (MEM) supplemented with non-essential amino acids, and containing 15% (v/v) fetal bovine serum, 5 mM L-glutamine, 1 mM sodium pyruvate, and 0.1 U/ml insulin. All cell lines were grown at 37° C. in an atmosphere of 5% CO2 in air.
Test compounds: 20 mM in DMSO and diluted to a final concentration of 200 μM in culture medium before use.
The following is the generic description of the assay method. It should be noted that although the conditions described work well with the cells listed above, the initial plating density and the MTT concentration used should be verified for each new cell line used to test compounds.
For each assay, doxorubicin is included as an inter-assay standard. This allows us to monitor the behaviour of the assay in general, and in particular, to check that the SKVLB line has maintained its resistant phenotype.
The plate layout is done in the following manner: The assays are carried out in 96-well (8 well×12 well) microtiter plates. Serial dilutions of the compound are tested along the length of the plate. A 1:3 serial dilution of compound in culture medium covers a concentration range from 100 μM to 1.7 nM. Each concentration of compound is tested in quadruplet, allowing two compounds to be tested per plate. Wells containing no cells (blank) and cells with no test compound (control) are included on each plate.
Cells are plated out in 100 μl of culture medium in the microtiter plates at a density of around 1,500-4,000 cells per well. The plates are incubated overnight to allow the cells to become adherent after which the test compound is added (100 μl of appropriate dilution per well). The cells are incubated with test compound at 37° C. for 48 h after which the compound is replaced with fresh medium. After a further 48 h incubation at 37° C., 50 μl of MTT solution (2 mg/ml) is added to each well. The plates are incubated in the dark for 4 h at 37° C. after which the medium is removed. The MTT formazan product is extracted from the cells by the addition of 200 μl DMSO followed by 50 μl of Sorensen's buffer. The plates are shaken briefly and the absorbance at 570 nm is read using a Molecular Devices UV max plate reader. Curves are fit to the MTT assay data using a four parameter logistic equation, and the data are normalized to fit a 0% to 100% survival scale.

With `COC(=O)C1=CC2=C(CO1)C(=O)c1ccccc1C2=O` [BCH2830, 3-methoxy carbonyl-5,10-dioxo-5,10-dihydro-1H-naphtho-[2,3-c]-pyran] the IC50 was 10.8 µM.

Same assay, conditions: ratio SKVLB / SKOV3

Point of comparison: `CC(=O)[C@H]1CC2=C(C(=O)c3ccccc3C2=O)[C@H](O[C@H]2C[C@H](NC(=O)C(F)(F)F)[C@H](Br)[C@H](C)O2)O1` [BCH2047, (1S,3R,1'S)-Methyl-(1-[2',3',4',6'-tetradeoxy-3'-trifluoroacetamido-4'-bromo-L-lyxohexopyranose]-5,10-dioxo-3,4,5,10-tetrahydronaphthaleno-[2,3-c]pyran-3-yl) ketone], VLB/OV3 31. Against it:
- COC(=O)[C@H](CC(C)C)NC(=O)[C@@H](N)CO[C@H]1O[C@H](C(C)=O)CC2=C1C(=O)c1ccccc1C2=O [BCH2000, (1S,2'S,3S,5'S)-Methyl-(1-O-[Serine-Leucine-Me ester]-5,10-dioxo-3,4,5,10-tetrahydro-1-H-naphtho [2,3-c]pyran-3-yl) ketone hydrochloride] — higher, 69.89
- CO[C@H]1C[C@H](O[C@H]2O[C@H](C(C)=O)C[C@]34O[C@]23C(=O)c2ccccc2C4=O)O[C@@H](C)[C@H]1OS(C)(=O)=O [BCH2141, (1'-S,1-R,3-S,4a-S,10a-S)-methyl-(1-[2',3',4',6'-tetradeoxy-3'-methoxy-4'-O-methanesulfonyl-L-lyxohexopyranose)-4a,10a-epoxy-5,10-dioxo-3,4,5,10-tetrahydronaphtho-[2,3-c]pyran-3-yl) ketone] — lower, 1.23
- COC1OC(C(=O)Nc2ccccc2)=CC2=C1C(=O)c1ccccc1C2=O (stereo not drawn) [BCH2044, 1-methoxy-3-N-anilinylcarbonyl-5,10-dioxo-5,10-dihydro-1H-naphtho-[2,3-c]-pyran] — lower, 3.55
- COC[C@@H]1CC2=C(C(=O)c3ccccc3C2=O)[C@@H](O[C@H]2C[C@H](NC(=O)C(F)(F)F)[C@H](O)[C@H](C)O2)O1 [BCH1691, (1'S,1R,3S)-5,10-dioxo-3-methoxymethyl-1-(2',3',6'-trideoxy-3'-trifluoroacetamido-L-lyxohexopyranose)-3,4,5,10-tetrahydro-1H-naphtho-[2,3-c]-pyran] — lower, 2.10
- COC(=O)[C@@H](N)COC1OC(C(C)=O)CC2=C1C(=O)c1ccccc1C2=O (mixture of isomers) [BCH1654, (1S,2'S,3R) and (1R,2'S,3S)-methyl-(1-[O-serinemethyl ester]-5,10-dioxo-3,4,5,10-tetrahydronaphtaleno [2,3-C]pyran-3-yl) ketone hydrochloride] — lower, 5.25
- CO[C@H]1O[C@H](C(=O)O)CC2=C1C(=O)c1ccccc1C2=O (relative stereo) [BCH2045, (1,3-trans)-1-methoxy-3-carboxyl-5,10-dioxo-3,4,5,10-tetrahydro-1H-naphtho-[2,3-c]-pyran] — lower, 3
- CC(=O)[C@@H]1CC2=C(C(=O)c3ccccc3C2=O)[C@@H](O[C@@H]2O[C@@H](C)[C@@H](O)[C@@H](O)[C@H]2I)O1 [BCH2015, (1'S,1R,3S)-methyl-(1-[2',6'-dideoxy-3',4'-dihydroxy-2'-iodo-L-lyxohexopyranose]-5,10-dioxo-3,4,5,10-tetrahydronaphtho [2,3-c]-pyran-3-yl) ketone] — lower, 3.19
- CC[C@H]1CC2=C(C(=O)c3ccccc3C2=O)[C@H](O[C@H]2C[C@H](N)[C@H](O)[C@H](C)O2)O1 [BCH2021, (1'S,1S,3S)-5,10-dioxo-3-ethyl-1-(2',3',6'-trideoxy-3'-amino-L-lyxohexopyranose)-3,4,5,10-tetrahydro-1H-naphtho-[2,3-c]-pyran] — lower, 3.74
- CC(=O)O[C@@H]1[C@H](C)O[C@@H](O[C@H]2O[C@H](C(C)=O)CC3=C2C(=O)c2ccccc2C3=O)C(Br)[C@@H]1OC(C)=O (stereo partly drawn) [BCH2100, (1'S,1R,3S)-methyl-(1-[2',6'-dideoxy-3',4'-diacetoxy-2'-bromo-L-lyxohexopyranose]-5,10-dioxo-3,4,5,10-tetrahydronaphtho-[2,3-c]-pyran-3-yl) ketone] — lower, 3.04
- Nc1nc(C2CC3=C(CO2)C(=O)c2ccccc2C3=O)cs1 (stereo not drawn) [BCH1189, 3-(3'-aminothiazolyl)-5,10-dioxo-1,3,4,5,10-pentahydronaphtho-[2,3-c]-pyran] — lower, 4.09
- CC(=O)C1CC2=C(C(=O)c3ccccc3C2=O)C(OCC2CCCNC2)O1 (mixture of isomers) [BCH2061, Methyl-(1-O-[3-piperidinemethanol]-5,10-dioxo-3,4,5,10-tetrahydronaphthaleno-[2,3-c]pyran3-yl) ketone hydrochloride salt, mixture of isomers] — lower, 18
- COC(=O)C1=CC2=C(CO1)C(=O)c1ccccc1C2=O [BCH2830, 3-methoxy carbonyl-5,10-dioxo-5,10-dihydro-1H-naphtho-[2,3-c]-pyran] — lower, 1.52
- COC(=O)C1(C(=O)OC)CC2=C(CO1)C(=O)c1ccccc1C2=O [BCH1665, 3,3-bis-(methoxycarbonyl)-5,10-dioxo-3,4,5,10-tetrahydro-1H-naphtho-[2,3-c]-pyran] — lower, 1.14
- CO[C@@H]1O[C@H](C(=O)Nc2ccccc2)CC2=C1C(=O)c1ccccc1C2=O (relative stereo) [BCH2042, (1,3-cis)-1-methoxy-3-N-anilinylcarbonyl-5,10-dioxo-3,4,5,10-tetrahydro-1H-naphtho-[2,3-c]-pyran] — lower, 3.51

`CO[C@H]1C[C@H](O[C@H]2O[C@H](C(C)=O)CC3=C2C(=O)c2ccccc2C3=O)O[C@@H](C)[C@H]1OS(C)(=O)=O` [BCH2070, (1'-S,1-R,3-S)-methyl-(1-[2',3',4',6' tetradeoxy-3'-methoxy-4'-O-methanesulfonyl-L-lyxohexopyranose)-5,10-dioxo-3,4,5,10 tetrahydronaphtho-[2,3-c]pyran-3-yl) ketone] was tested, and the VLB/OV3 was 14.34-15.
`CC(=O)C1CC2=C(C(=O)c3ccccc3C2=O)C(OCC2CCCCN2)O1` (racemic) [BCH2069, Methyl-(1-O-[2'-piperidinemethanol]-5,10-dioxo-3,4,5,10-tetrahydronaphthaleno-[2,3-c]pyran-3-yl) ketone, racemic, hydrochloride] was tested, and the VLB/OV3 was 2-9.8.
For `CC(=O)O[C@@H]1[C@H](C)O[C@@H](O[C@@H]2O[C@@H](C(C)=O)CC3=C2C(=O)c2ccccc2C3=O)C(Br)[C@@H]1OC(C)=O` (stereo partly drawn) [BCH2099, (1'S,1S,3R)-methyl-(1-[2',6'-dideoxy-3',4'-diacetoxy-2'-bromo-L-lyxohexopyranose]-5,10-dioxo-3,4,5,10-tetrahydronaphtho-[2,3-c]-pyran-3-yl) ketone], the VLB/OV3 was 0.77-2.
For `CC(C)C(=O)[C@@H]1CC2=C(C(=O)c3ccccc3C2=O)[C@@H](O[C@H]2C[C@H](NC(=O)C(F)(F)F)[C@H](O)[C@H](C)O2)O1` [BCH2112, (1'S,1R,3S)-isopropyl-[1-(2',3',6'-trideoxy-3'-trifluoroacetamido-L-lyxohexopyranose)-5,10-dioxo-3,4,5,10-tetrahydro-1H-naphtho-[2,3-c]-pyranyl]-ketone], the VLB/OV3 was 15.96-17.
`C[C@@H]1O[C@@H](O[C@H]2O[C@H](COc3ccccc3)CC3=C2C(=O)c2ccccc2C3=O)C[C@H](NC(=O)C(F)(F)F)[C@@H]1O` [BCH2032, (1'S,1R,3S)-5,10-dioxo-3-phenyloxymethyl-1-(2',3',6'-trideoxy-3'-trifluoroacetamido-L-lyxohexopyranose)-3,4,5,10-tetrahydro-1H-naphtho-[2,3-c] pyran] was tested, and the VLB/OV3 was 2-2.93.
